# Reference: article PMC4839570, “Novel Anthra[1,2-c][1,2,5]Thiadiazole-6,11-Diones as Promising Anticancer Lead Compounds: Biological Evaluation, Characterization & Molecular Targets Determination” (PLoS ONE, 2016)
# Read-outs that look alike come from different tables or passages of the source.
# Experiments:
# [1] = tested on: EKVX; test: NCI-60 cytotoxicity screen; format: cell-based
# [2] = tested on: MKN28; test: JFCR-39 cytotoxicity screen; format: cell-based
# [3] = tested on: MCF-7; test: JFCR-39 cytotoxicity screen; format: cell-based
# [4] = tested on: MKN74; test: JFCR-39 cytotoxicity screen; format: cell-based
# [5] = tested on: NCI-H522; test: JFCR-39 cytotoxicity screen; format: cell-based
# [6] = tested on: MKN45; test: JFCR-39 cytotoxicity screen; format: cell-based
# [7] = tested on: NCI-H23; test: NCI-60 cytotoxicity screen; format: cell-based
# [8] = tested on: HS 578T; test: NCI-60 cytotoxicity screen; format: cell-based; details: Homo sapiens
# [9] = tested on: OVCAR-3; details: five-dose
# [10] = tested on: RXF 393; test: NCI-60 cytotoxicity screen; format: cell-based
# [11] = tested on: OVCAR-8; test: NCI-60 cytotoxicity screen; format: cell-based
# [12] = tested on: DMS273; test: JFCR-39 cytotoxicity screen; format: cell-based
# [13] = tested on: K-562; test: NCI-60 cytotoxicity screen; format: cell-based; details: Homo sapiens, K562, Fig 7, read-out: mean log10 of the GI50 values (converted)
# [14] = tested on: SNB-75; test: JFCR-39 cytotoxicity screen; format: cell-based
# [15] = tested on: A498; test: NCI-60 cytotoxicity screen; format: cell-based
# [16] = tested on: SN12C; test: NCI-60 cytotoxicity screen; format: cell-based
# [17] = tested on: UO-31; test: NCI-60 cytotoxicity screen; format: cell-based
# [18] = tested on: A549; test: JFCR-39 cytotoxicity screen; format: cell-based
# [19] = tested on: NCI-H460; test: NCI-60 cytotoxicity screen; format: cell-based
# [20] = tested on: MKN7; test: JFCR-39 cytotoxicity screen; format: cell-based
# [21] = tested on: PC-3; test: JFCR-39 cytotoxicity screen; format: cell-based
# [22] = tested on: SF-268; test: JFCR-39 cytotoxicity screen; format: cell-based
# [23] = tested on: MCF7; test: NCI-60 cytotoxicity screen; format: cell-based
# [24] = tested on: SNB-19; test: NCI-60 cytotoxicity screen; format: cell-based
# [25] = tested on: HT29; test: NCI-60 cytotoxicity screen; format: cell-based
# [26] = tested on: A549/ATCC; test: NCI-60 cytotoxicity screen; format: cell-based
# [27] = tested on: DU-145; test: NCI-60 cytotoxicity screen; format: cell-based
# [28] = tested on: SR; test: NCI-60 cytotoxicity screen; format: cell-based
# [29] = tested on: HCT-15; test: JFCR-39 cytotoxicity screen; format: cell-based
# [30] = tested on: SF-268; test: NCI-60 cytotoxicity screen; format: cell-based
# [31] = tested on: 786-0; test: NCI-60 cytotoxicity screen; format: cell-based
# [32] = tested on: MKN1; test: JFCR-39 cytotoxicity screen; format: cell-based
# [33] = Homo sapiens, Fig 7, read-out: mean log10 of the GI50 values (converted)
# [34] = Homo sapiens, five-dose, read-out: GI50
# [35] = Homo sapiens, five-dose, read-out: LC50 (the source's name)
# [36] = Homo sapiens, read-out: LC50 (the source's name)
smiles,measurement,setting,value
O=C1c2ccccc2C(=O)c2c1cc(Cl)c1nsnc21 [NSC757963],GI50,[1]; [33],10.5 µM
same,GI50,[1]; [34],11 µM
same,CC50,[1]; [35],48.7 µM
same,TGI,[1]; five-dose,23.2 µM
same,TGI,[2],4.4 µM
same,GI50,"[2]; Homo sapiens, MKN-28",2.2 µM
same,CC50,"[2]; Homo sapiens, MKN-28, read-out: LC50 (the source's name)",8.6 µM
same,TGI,[3],3.9 µM
same,GI50,"[3]; Homo sapiens, MCF7",1.8 µM
same,CC50,"[3]; Homo sapiens, MCF7, read-out: LC50 (the source's name)",8 µM
same,TGI,[4],4.2 µM
same,GI50,"[4]; Homo sapiens, MKN-74",2.1 µM
same,CC50,"[4]; Homo sapiens, MKN-74, read-out: LC50 (the source's name)",8.4 µM
same,TGI,[5],3.6 µM
same,GI50,[5]; Homo sapiens,1.8 µM
same,CC50,[5]; [36],7.3 µM
same,TGI,[6],5.1 µM
same,GI50,"[6]; Homo sapiens, MKN-45",2 µM
same,CC50,"[6]; Homo sapiens, MKN-45, read-out: LC50 (the source's name)",17 µM
same,GI50,[7]; [33],3.63 µM
same,GI50,[7]; [34],3.62 µM
same,CC50,[7]; [35],74.6 µM
same,TGI,[7]; five-dose,17.2 µM
same,GI50,"[8]; Hs-578T, HS578T, Fig 7, read-out: mean log10 of the GI50 values (converted)",2.51 µM
same,GI50,"[8]; HS 578T, five-dose, read-out: GI50",2.38 µM
same,CC50,"[8]; HS 578T, five-dose, read-out: LC50 (the source's name)",> 100 µM
same,TGI,[9],3.23 µM
same,GI50,"[10]; Homo sapiens, RXF393, Fig 7, read-out: mean log10 of the GI50 values (converted)",1.86 µM
same,GI50,[10]; [34],2.17 µM
same,CC50,[10]; [35],27.1 µM
same,TGI,[10]; five-dose,7.21 µM
same,GI50,[11]; [33],1.32 µM
same,GI50,[11]; [34],2.39 µM
same,CC50,[11]; [35],> 100 µM
same,TGI,[11]; five-dose,5.19 µM
same,TGI,[12],4.1 µM
same,GI50,"[12]; Homo sapiens, DMS-273",2.1 µM
same,CC50,"[12]; Homo sapiens, DMS-273, read-out: LC50 (the source's name)",8.1 µM
same,GI50,[13],0.759 µM
same,TGI,[14],3.8 µM
same,GI50,[14]; Homo sapiens,2.1 µM
same,CC50,[14]; [36],6.8 µM
same,GI50,[15]; [33],85.1 µM
same,GI50,[15]; [34],72.8 µM
same,CC50,[15]; [35],> 100 µM
same,TGI,[15]; five-dose,>100 µM
same,GI50,[16]; [33],2.29 µM
same,GI50,[16]; [34],3.27 µM
same,CC50,[16]; [35],36.1 µM
same,TGI,[16]; five-dose,13.1 µM
same,GI50,[17]; [33],6.31 µM
same,GI50,[17]; [34],14 µM
same,CC50,[17]; [35],52.4 µM
same,TGI,[17]; five-dose,27.1 µM
same,TGI,[18],43.0 µM
same,GI50,[18]; Homo sapiens,20 µM
same,CC50,[18]; [36],95 µM
same,GI50,"[19]; Homo sapiens, NCI-460, five-dose, read-out: GI50",30.2 µM
same,CC50,"[19]; Homo sapiens, NCI-460, five-dose, read-out: LC50 (the source's name)",> 100 µM
same,GI50,"[19]; Homo sapiens, NCI-H460, Fig 7, read-out: mean log10 of the GI50 values (converted)",33.1 µM
same,TGI,"[19]; NCI-460, five-dose",>100 µM
same,TGI,[20],3.6 µM
same,GI50,"[20]; Homo sapiens, MKN-7",1.7 µM
same,CC50,"[20]; Homo sapiens, MKN-7, read-out: LC50 (the source's name)",7.4 µM
same,TGI,[21],3.2 µM
same,GI50,[21]; Homo sapiens,1.6 µM
same,CC50,[21]; [36],6.5 µM
same,TGI,[22],4.0 µM
same,GI50,[22]; Homo sapiens,2 µM
same,CC50,[22]; [36],6.5 µM
same,GI50,[23]; [33],1.7 µM
same,GI50,[23]; [34],1.78 µM
same,CC50,[23]; [35],10.4 µM
same,TGI,[23]; five-dose,4.24 µM
same,GI50,[24]; [33],9.55 µM
same,GI50,[24]; [34],13.9 µM
same,CC50,[24]; [35],58.9 µM
same,TGI,[24]; five-dose,28.6 µM
same,GI50,"[25]; Homo sapiens, HT-29, Fig 7, read-out: mean log10 of the GI50 values (converted)",19.5 µM
same,GI50,"[25]; Homo sapiens, HT-29, five-dose, read-out: GI50",19.2 µM
same,CC50,"[25]; Homo sapiens, HT-29, five-dose, read-out: LC50 (the source's name)",98.2 µM
same,TGI,[25]; five-dose,43.4 µM
same,GI50,[26]; [33],91.2 µM
same,GI50,[26]; [34],> 100 µM
same,CC50,[26]; [35],> 100 µM
same,TGI,[26]; five-dose,>100 µM
same,GI50,[27]; [33],14.1 µM
same,GI50,[27]; [34],14.2 µM
same,CC50,[27]; [35],52.2 µM
same,TGI,[27]; five-dose,27.2 µM
same,GI50,[28]; [33],1.82 µM
same,GI50,[28]; [34],2.64 µM
same,CC50,[28]; [35],> 100 µM
same,TGI,[28]; five-dose,>100 µM
same,TGI,[29],3.9 µM
same,GI50,[29]; Homo sapiens,1.9 µM
same,CC50,[29]; [36],7.9 µM
same,GI50,[30]; [33],1.95 µM
same,GI50,[30]; [34],2.07 µM
same,CC50,[30]; [35],13.9 µM
same,TGI,[30]; five-dose,4.83 µM
same,TGI,"[31]; 786–0, five-dose",31.8 µM
same,GI50,"[31]; Homo sapiens, 786-0, Fig 7, read-out: mean log10 of the GI50 values (converted)",6.61 µM
same,GI50,"[31]; Homo sapiens, 786–0, five-dose, read-out: GI50",17.2 µM
same,CC50,"[31]; Homo sapiens, 786–0, five-dose, read-out: LC50 (the source's name)",58.8 µM
same,TGI,[32],3.4 µM
same,GI50,"[32]; Homo sapiens, MKN-1",1.8 µM
same,CC50,"[32]; Homo sapiens, MKN-1, read-out: LC50 (the source's name)",6.6 µM
